From patent US7759345B2, “Antitumoral derivatives of ET-743” (priority 2001, dated 2010)

Tests used:
Type in all cases: cell-based
Conditions in all cases: SRB, 48 hours exposure
A-549 = experiment: Inhibition of cells growth by colorimetric assay (SRB), A-549
In short: (§1)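 Cells in RPMI 1640 with 10% FBS were seeded at 5×10^3 per well, allowed 18 h to attach, then exposed to compound (10 to 10^−8 μg/ml, in DMSO/EtOH/PBS 0.5:0.5:99) for 48 h. After TCA fixation and SRB staining, bound dye was solubilized in Tris and OD read at 490 nm; GI, TGI and LC derived from triplicates.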

SK-BR-3 = experiment: Inhibition of cells growth by colorimetric assay (SRB), SK-BR-3
Method: (§2) 2°.—Inhibition of Cells Growth by Colorimetric Assay.
(§3) A colorimetric type of assay, using sulforhodamine B (SRB) reaction has been adapted for a quantitative measurement of cell growth and viability [following the technique described by Philip Skehan, et al. (1990), New colorimetric cytotoxicity assay for anticancer drug screening, J. Natl. Cancer Inst., 82:1107-1112]
(§4) This form of the assay employs 96 well cell culture microplates of 9 mm diameter (Faircloth, 1988; Mosmann, 1983). Most of the cell lines are obtained from American Type Culture Collection (ATCC) derived from different human cancer types.
(§5) Cells are maintained in RPMI 1640 10% FBS, supplemented with 0.1 g/l penicillin and 0.1 g/l streptomycin sulfate and then incubated at 37° C., 5% CO2 and 98% humidity. For the experiments, cells were harvested from subconfluent cultures using trypsin and resuspended in fresh medium before plating.
(§6) Cells are seeded in 96 well microtiter plates, at 5×10^3 cells per well in aliquots of 195 μl medium, and they are allowed to attach to the plate surface by growing in drug free medium for 18 hours. Afterward, samples are added in aliquots of 5 μl in a ranging from 10 to 10^−8 μg/ml, dissolved in DMSO/EtOH/PBS (0.5:0.5:99). After 48 hours exposure, the antitumor effect are measured by the SRB methodology: cells are fixed by adding 50 μl of cold 50% (wt/vol) trichloroacetic acid (TCA) and incubating for 60 minutes at 4° C. Plates are washed with deionized water and dried. One hundred μl of SRB solution (0.4% wt/vol in 1% acetic acid) is added to each microtiter well and incubated for 10 minutes at room temperature. Unbound SRB is removed by washing with 1% acetic acid. Plates are air dried and bound stain is solubilized with Tris buffer. Optical densities are read on a automated spectrophotometric plate reader at a single wavelength of 490 nm.
(§7) The values for mean+/−SD of data from triplicate wells are calculated. Some parameters for cellular responses can be calculated: GI=growth inhibition, TGI=total growth inhibition (cytostatic effect) and LC=cell killing (cytotoxic effect).
(§8) Obtained results may predict the usefulness of a certain drug as a potential cancer treatment. For this technique, compounds which show GI50 values smaller than 10 μg/ml are selected to continue with further studies. GI50's data allow to predict that not only could a drug be cystostatic, but also it could have a potential in terms of tumor reduction.

DU-145 = experiment: Inhibition of cells growth by colorimetric assay (SRB), DU-145
Method: as §2, §3, §4, §5, §6, §7, §8

LNCaP = experiment: Inhibition of cells growth by colorimetric assay (SRB), LNCaP
Method: as §2, §3, §4, §5, §6, §7, §8

SK-OV-3 = experiment: Inhibition of cells growth by colorimetric assay (SRB), SK-OV-3
Method: as §2, §3, §4, §5, §6, §7, §8

HMEC1 = experiment: Inhibition of cells growth by colorimetric assay (SRB), HMEC1
Method: as §2, §3, §4, §5, §6, §7, §8

LoVo = experiment: Inhibition of cells growth by colorimetric assay (SRB), LoVo
Method: as §2, §3, §4, §5, §6, §7, §8

LoVo-Dox = experiment: Inhibition of cells growth by colorimetric assay (SRB), LoVo-Dox
Method: as §2, §3, §4, §5, §6, §7, §8

K-562 = experiment: Inhibition of cells growth by colorimetric assay (SRB), K-562
Method: as §2, §3, §4, §5, §6, §7, §8

PANC-1 = experiment: Inhibition of cells growth by colorimetric assay (SRB), PANC-1
Method: as §2, §3, §4, §5, §6, §7, §8

SK-MEL-28 = experiment: Inhibition of cells growth by colorimetric assay (SRB), SK-MEL-28
Method: as §2, §3, §4, §5, §6, §7, §8

IGROV-1 = experiment: Inhibition of cells growth by colorimetric assay (SRB), IGROV-1
Method: as §2, §3, §4, §5, §6, §7, §8

HT-29 = experiment: Inhibition of cells growth by colorimetric assay (SRB), HT-29
In short: as §1

IGROV-ET = experiment: Inhibition of cells growth by colorimetric assay (SRB), IGROV-ET
Method: as §2, §3, §4, §5, §6, §7, §8

Question: `C=COC(=O)Oc1cc2c(cc1OC)[C@@]1(CS[C@@H]3c4c(OC(C)=O)c(C)c5c(c4[C@H](COC1=O)N1C3[C@H]3c4c(cc(C)c(OC)c4O)C[C@@H]([C@@H]1O)N3C)OCO5)N(C(=O)OC=C)CC2` (stereo partly drawn) [Compound 100] was tested. Which “A-549 TGI” value (A-549; A-549) did it give?
Answer: 6.20E-08

Question: What about the GI50 (A-549; Homo sapiens, A549, 48 h, A-549, read-out: A-549 GI50) of the same compound?
Answer: 29.8 nM

Question: What about the LC50 (concentration for 50% cell killing) (A-549; Homo sapiens, A549, 48 h, read-out: A-549 LC50, A-549) of the same compound?
Answer: 112 nM

Question: What about the GI50 (SK-BR-3; Homo sapiens, SK-BR-3, 48 h, SK-BR3, read-out: SK-BR3 GI50) of the same compound?
Answer: 40.5 nM

Question: What about the CC50 (SK-BR-3; Homo sapiens, SK-BR-3, 48 h, read-out: SK-BR3 LC50, SK-BR3) of the same compound?
Answer: 1720 nM

Question: And the “SK-BR3 TGI” value (SK-BR-3; SK-BR3)?
Answer: 9.87E-08

Question: What about the “DU-145 TGI” value (DU-145; DU-145) of the same compound?
Answer: 1.03E-07

Question: What about the GI50 (DU-145; Homo sapiens, DU-145, 48 h, DU-145, read-out: DU-145 GI50) of the same compound?
Answer: 43.1 nM

Question: What about the CC50 (DU-145; Homo sapiens, DU-145, 48 h, read-out: DU-145 LC50, DU-145) of the same compound?
Answer: 8320 nM

Question: What about the GI50 (LNCaP; Homo sapiens, LNCaP, 48 h, read-out: LNCAP GI50, LNCAP) of the same compound?
Answer: 21.5 nM

Question: And the CC50 (LNCaP; Homo sapiens, LNCaP, 48 h, read-out: LNCAP LC50, LNCAP)?
Answer: 66.5 nM

Question: And the “LNCAP TGI” value (LNCaP; LNCAP)?
Answer: 3.79E-08

Question: And the GI50 (SK-OV-3; Homo sapiens, SK-OV-3, 48 h, SK-OV3, read-out: SK-OV3 GI50)?
Answer: 28.2 nM

Question: And the LC50 (SK-OV-3; Homo sapiens, SK-OV-3, 48 h, read-out: SK-OV3 LC50, SK-OV3)?
Answer: 111 nM

Question: What about the “SK-OV3 TGI” value (SK-OV-3; SK-OV3) of the same compound?
Answer: 5.74E-08

Question: What about the “HMEC-1 TGI” value (HMEC1; HMEC-1) of the same compound?
Answer: 5.14E-08

Question: What about the GI50 (HMEC1; Homo sapiens, HMEC-1, 48 h, HMEC-1, read-out: HMEC-1 GI50) of the same compound?
Answer: 27.5 nM

Question: And the LC50 (HMEC1; Homo sapiens, HMEC-1, 48 h, read-out: HMEC-1 LC50, HMEC-1)?
Answer: 96.1 nM

Question: And the GI50 (LoVo; Homo sapiens, LoVo, 48 h, LOVO, read-out: LOVO GI50)?
Answer: 24.4 nM

Question: What about the LC50 (concentration for 50% cell killing) (LoVo; Homo sapiens, LoVo, 48 h, read-out: LOVO LC50, LOVO) of the same compound?
Answer: 82.3 nM

Question: And the “LOVO TGI” value (LoVo; LOVO)?
Answer: 4.48E-08

Question: And the GI50 (LoVo-Dox; Homo sapiens, 48 h, LOVO-DOX, read-out: LOVO-DOX GI50)?
Answer: 392 nM

Question: What about the CC50 (LoVo-Dox; Homo sapiens, 48 h, read-out: LOVO-DOX LC50, LOVO-DOX) of the same compound?
Answer: 11100 nM

Question: What about the “LOVO-DOX TGI” value (LoVo-Dox; LOVO-DOX) of the same compound?
Answer: 2.73E-06

Question: And the GI50 (K-562; Homo sapiens, K562, 48 h, K-562, read-out: K-562 GI50)?
Answer: 36.4 nM

Question: And the LC50 (50% cell killing) (K-562; Homo sapiens, K562, 48 h, read-out: K-562 LC50, K-562)?
Answer: 106 nM

Question: What about the “K-562 TGI” value (K-562; K-562) of the same compound?
Answer: 6.20E-08

Question: What about the GI50 (PANC-1; Homo sapiens, PANC-1, 48 h, PANC-1, read-out: PANC-1 GI50) of the same compound?
Answer: 41.4 nM

Question: What about the LC50 (concentration for 50% net cell kill) (PANC-1; Homo sapiens, PANC-1, 48 h, read-out: PANC-1 LC50, PANC-1) of the same compound?
Answer: 8320 nM

Question: What about the “PANC-1 TGI” value (PANC-1; PANC-1) of the same compound?
Answer: 1.14E-08

Question: What about the GI50 (SK-MEL-28; Homo sapiens, SK-MEL-28, 48 h, MEL-28, read-out: MEL-28 GI50) of the same compound?
Answer: 26.5 nM

Question: What about the CC50 (SK-MEL-28; Homo sapiens, SK-MEL-28, 48 h, read-out: MEL-28 LC50, MEL-28) of the same compound?
Answer: 95.9 nM

Question: What about the “MEL-28 TGI” value (SK-MEL-28; MEL-28) of the same compound?
Answer: 5.04E-08

Question: And the GI50 (IGROV-1; Homo sapiens, IGROV-1, 48 h, IGROV, read-out: IGROV GI50)?
Answer: 35.1 nM

Question: What about the CC50 (IGROV-1; Homo sapiens, IGROV-1, 48 h, read-out: IGROV LC50, IGROV) of the same compound?
Answer: 915 nM

Question: What about the “IGROV TGI” value (IGROV-1; IGROV) of the same compound?
Answer: 6.54E-08

Question: What about the “HT-29 TGI” value (HT-29; HT-29) of the same compound?
Answer: 8.07E-08

Question: What about the GI50 (HT-29; Homo sapiens, HT-29, 48 h, HT-29, read-out: HT-29 GI50) of the same compound?
Answer: 35 nM

Question: What about the LC50 (concentration for 50% cell killing) (HT-29; Homo sapiens, HT-29, 48 h, read-out: HT-29 LC50, HT-29) of the same compound?
Answer: 11100 nM

Question: And the GI50 (IGROV-ET; Homo sapiens, 48 h, IGROV-ET, read-out: IGROV-ET GI50)?
Answer: 63.2 nM

Question: What about the CC50 (IGROV-ET; Homo sapiens, 48 h, read-out: IGROV-ET LC50, IGROV-ET) of the same compound?
Answer: 11100 nM

Question: And the “IGROV-ET TGI” value (IGROV-ET; IGROV-ET)?
Answer: 7.41E-07
